This note sets out measurements from patent US20040039211A1, “Tetrapyrroles” (DUKE UNIVERSITY AND NATIONAL JEWISH MEDICAL AND RESEARCH …, priority 2000, published 2004).

By IC50 is commonly meant the concentration that gives 50% inhibition. Lower therefore signals greater potency in that assay.

Data set [1] can be described thus: SOD activity, xanthine oxidase/cytochrome c method. In kind it is biochemical. The following applies: for kcat, O2^− dismutation: competition with 10 μM cytochrome c, pH 7.8, 25° C. On the procedure:
FIG. 12. […] The v0 is the rate of reduction of 10 μM cytochrome c by O2. The vi is the rate of reduction of cytochome c inhibited by the porphyrin catalyst in the presence of 0.1 mM EDTA in 0.05 M tris buffer at pH 7.8. 40 μM xanthine. ˜2 nM xanthine oxidase at 25° C. The total volume of the assay solution is 3 mL.
SOD Activity. Catalysis of the dismutating of O2 in vitro was followed by the xanthine oxidase/cytochrome c method (McCord et al, J. Biol. Chem. 244:6049 (1969)).
Dismutation of superoxide anion, O2^−. Assays were conducted in 0.05 M aqueous phosphate buffer, pH 7.8, 0.1 mM EDTA, ±15 μg/mL of catalase, ±albumin. Rate constants for the reaction with O2^−were based upon the competition of the compounds with cytochrome c.
(§1) Two metallotetrapyrroles were tested for antioxidant activity, in vitro. In particular, the compounds were assayed for their ability to dismutate superoxide in the indirect method that utilizes xanthine and xanthine oxidase to generate superoxide and cytochrome c reduction as indicator of superoxide flux. […] The compounds were also assayed for their ability to prevent lipid peroxidation of rat brain homogenates by iron and ascorbate. The mixture of iron and ascorbate generates reactive oxygen species that oxidize biological lipids and these oxidized lipids can be detected as species that react with thiobarbituric acid (TBARS).
a) SOD activity determined using a xanthine oxidase/cytochrome c assay

Data set [2] relates to rat brain homogenates. In words: Lipid peroxidation of rat brain homogenates by iron/ascorbate (TBARS). In kind it is biochemical. The following applies: concentration that reduced lipid peroxidation by one-half. As to the method:
The ability of mimetics to inhibit lipid peroxidation can be assessed as described by Day et al, Free Rad. Biol. Med. 26:730 (1990). Iron and ascorbate can be used to initiate lipid peroxidation in tissue homogenates and the formation of thiobarbituric acid reactive species (T BARS) measured.
as §1, with “(TBARS). Both compounds could inhibit the formation of TBARS and this ability correlated with their superoxide dismutase (SOD) activity (Table 5).” for “(TBARS).”
b) Lipid peroxidation was initiated in rat brain homogenates with iron/ascorbate and the IC50 is the concentration of compound that reduced lipid peroxidation by one-half.

Data set [3] can be described thus: Cyclic voltammetry, metal-centered redox potential. The class given is physicochemical. The settings on record: 90/10 (v/v) methanol/aqueous solution, pH* 7.9. On the procedure:
Manganese(III) Salen. The compound was prepared by the published procedure (Boucher, J. lnorg. Nucl. Chem. 36:531 (1974)). The uv/vis in water: ε235=3.70×10^4 cm^−1 M^−1, ε279=1.70×10^4 cm^−1 M^−1, ε397=4.60×10^3 cm^−M^−1. The elemental analysis: Anal. Calcd for Mn^IIIsalenCl, C16H14N2O2MnCl: C, 53.88; H, 3.96; N; 7.85. Found: C, 54.02; H, 4.06; N, 7.85. […] Based on the E1/2 of Mn^IIITM-2-PyP^5+, ferrocenemethanol and of K3Fe(CN)6 in water and methanol, the redox potential of Mn^III salen^+ in water was calculated to be E1/2=−0.13 V vs NHE.
Electrochemistry of the Manganese(III) Biliverdin Dimethylester. Measurements were made using a CH Instruments model 600 voltammetric analyzer as described previously(Batinic-Haberle et al, Inorg. Chem. 38:4011 (1999)). A three-electrode system in a small volume (0.5-3.0 mL), with a 3 mm diameter glassy carbon button working electrode (Bioanalytical Systems), Ag/AgCl reference electrode (3 M NaCl, Bioanalytical Systems), and a Pt wire (0.5 mm) as auxiliary electrode, were used. The cyclic votammetry was performed on 0.5 mM (per manganese) methanol/aqueous (90/10, v/v) solutions of the compounds investigated. The ionic strength was kept at 0.10 M (NaCl), and 0.05 M tris buffer was used for pH^* adjustment. For calibration purposes, compounds of different hydrophilicities, […], (Kolthof et al, J. Phys. Chem. 39:945 (1935)) ferrocenemethanol and Mn^IIITM-2-PyP^5+ were studied in both aqueous and methanol/aqueous (90/10, v/v) solutions (I=0.10 M NaCl, 0.05 M tris buffer, pH^* 7.9). In all cases the measured E1/2 was 170 mV more positive in methanolic than in aqueous solution and this value was used to predict the redox potential in aqueous solution from measurement in methanol/aqueous solution.

Data set [4] is described as follows: Reactivity towards nitric oxide (uv/vis). In kind it is physicochemical. The settings on record: 14 μM, 90-fold excess NO, 90/10 methanol/PBS, 1 hour.
Data set [5] can be described thus: Hydrolysis / dissociation of the complex in methanol/aqueous or water solution. The class given is physicochemical. As to the method:
Uv/vis Spectroscopy. […] Also the effects of EDTA, H2O2, and the methanol/water ratio on the stability of the manganese(III) complex were examined. […] […] 79:699 (1960)). When needed the biliverdin and biliverdin dimethylester as well as their reduced forms bilirubin and bilirubin dimethylester were studied. […] In a week, at 25° C., only 14% of the complex dissociated. When the water content was increased to 43%, half the complex dissociated in a week.

The nature of data set [6]: Solubility. The class given is physicochemical.

For “Manganese(III) Biliverdin IX Dimethylester [{Mn^IIIBVDME}2]”, the “specific activity (SOD mimetic)” value in data set [1] is given as 10,700 units/mg. Also, in data set [1] (1:1 albumin to compound ratio), the “effect of albumin on SOD-like activity” value was “no negative effect of albumin was observed”. Also, the “decrease of SOD-like activity in the presence of albumin” value in data set [1] (albumin to compound ratio 3) is 50%. The same substance showed an SOD specific activity in data set [1] (per manganese, 1 unit = quantity (mg) per 3.0 mL causing 50% inhibition of reduction of 10 μM cytochrome c) of 10700 U/mg. Further, the “kcat, O2^− dismutation” value amounted to 5.5e+07 M⁻¹ s⁻¹ in data set [1] (per manganese); 5.5e+07 M⁻¹ s⁻¹ in data set [1] (per manganese, listed as compound of FIG. 2C); 5.5e+07 M⁻¹ s⁻¹ in data set [1] (per manganese, listed as ½ {Mn^III/IVBVDME^0/−}2). The “SOD Activity” value in data set [1] (xanthine oxidase/cytochrome c assay) is 10,700 USOD/mg. This substance gave an IC50 in data set [2] of 300 nM. The “E1/2, V vs Ag/AgCl” value in data set [3] (Mn(III)/Mn(II) couple) was −0.32 V vs Ag/AgCl; in data set [3] (Mn(III)/Mn(IV) couple), “+0.36 V vs Ag/AgCl”; in data set [3] (Mn(III)/Mn(IV) couple, listed as ½ {Mn^III/IVBVDME^0/−}2) it was −0.36 V vs Ag/AgCl. Further, the “reactivity towards NO (change of spectrum)” value in data set [4] was “No change in the spectrum”; in data set [4] (listed as compound of FIG. 2C), “No reactivity towards NO has been detected”. Moreover, the “fraction of complex dissociated (hydrolysis)” value in data set [5] (90/10 methanol/aqueous, pH* 7.9, one week, 25° C.) is given as 14%; in data set [5] (water content 43%, one week) it was “half”. Further, the “solubility in organic solvents” value in data set [6] (ethanol, methanol) is “soluble in ethanol and methanol”. Further, the solubility in water in data set [6] (water) is ~10^−8 M.
